Activity calls are given as the source filed them. No cut-off for these calls is given here.
Experiments:
Mus musculus [1] = assay: Reno-protective activity against CLP-induced acute kidney injury C57BL/6J mouse model assessed as decrease in BUN level at 20 mg/kg, ip administered twice at 30 mins prior to CLP operation and 8 hrs post-CLP operation and measured at 16 hrs post-CLP operation; assay type: functional, organism-based; conditions: time 16.5 hrs
Cytochrome P450 2C19 = Cytochrome P450 2C19 (Homo sapiens, UniProt P33261); assay: Inhibition of CYP2C19 in human liver microsomes using S-mephenytoin as substrate upto 100 uM incubated for 10 mins in presence of NADPH by LC-MS/MS analysis; assay type: ADME, Microsome
Sequence of Cytochrome P450 2C19 (P33261 whole entry): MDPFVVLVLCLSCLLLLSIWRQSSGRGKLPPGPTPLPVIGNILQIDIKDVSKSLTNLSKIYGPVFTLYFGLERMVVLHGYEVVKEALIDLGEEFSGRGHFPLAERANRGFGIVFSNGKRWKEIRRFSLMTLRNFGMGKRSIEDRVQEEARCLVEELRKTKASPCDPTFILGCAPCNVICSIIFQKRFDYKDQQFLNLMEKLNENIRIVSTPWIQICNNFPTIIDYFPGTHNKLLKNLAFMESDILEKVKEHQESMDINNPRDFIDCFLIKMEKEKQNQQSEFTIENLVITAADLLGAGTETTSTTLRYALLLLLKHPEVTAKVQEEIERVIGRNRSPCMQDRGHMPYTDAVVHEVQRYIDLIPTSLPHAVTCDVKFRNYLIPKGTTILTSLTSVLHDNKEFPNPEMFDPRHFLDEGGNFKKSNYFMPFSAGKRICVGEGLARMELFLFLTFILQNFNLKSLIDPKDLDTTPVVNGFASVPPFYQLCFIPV

[2] = Half life in BALB/c mouse at 10 mg/kg, po measured for 24 hrs by LC-MS/MS analysis; assay type: ADME, organism-based; conditions: in vivo
[3] = Intrinsic clearance in human liver microsomes; assay type: ADME, Microsome; conditions: read-out: CLH
[4] = Toxicity in C57BL/6J mouse assessed as pathological changes in lungs at 20 mg/kg, ip administered twice at 0 hrs and 8 hrs and measured after 16 hrs by Hematoxylin-Eosin staining based analysis; assay type: organism-based; conditions: in vivo
[5] = Clearance in BALB/c mouse at 10 mg/kg, iv measured for 24 hrs by LC-MS/MS analysis; assay type: ADME, organism-based; conditions: in vivo
[6] = molecular target: Voltage-gated inwardly rectifying potassium channel KCNH2 (Homo sapiens, UniProt Q12809); assay: Inhibition of hERG expressed in CHO cells; assay type: toxicity, cell-based
Sequence of Voltage-gated inwardly rectifying potassium channel KCNH2 (Q12809 whole entry): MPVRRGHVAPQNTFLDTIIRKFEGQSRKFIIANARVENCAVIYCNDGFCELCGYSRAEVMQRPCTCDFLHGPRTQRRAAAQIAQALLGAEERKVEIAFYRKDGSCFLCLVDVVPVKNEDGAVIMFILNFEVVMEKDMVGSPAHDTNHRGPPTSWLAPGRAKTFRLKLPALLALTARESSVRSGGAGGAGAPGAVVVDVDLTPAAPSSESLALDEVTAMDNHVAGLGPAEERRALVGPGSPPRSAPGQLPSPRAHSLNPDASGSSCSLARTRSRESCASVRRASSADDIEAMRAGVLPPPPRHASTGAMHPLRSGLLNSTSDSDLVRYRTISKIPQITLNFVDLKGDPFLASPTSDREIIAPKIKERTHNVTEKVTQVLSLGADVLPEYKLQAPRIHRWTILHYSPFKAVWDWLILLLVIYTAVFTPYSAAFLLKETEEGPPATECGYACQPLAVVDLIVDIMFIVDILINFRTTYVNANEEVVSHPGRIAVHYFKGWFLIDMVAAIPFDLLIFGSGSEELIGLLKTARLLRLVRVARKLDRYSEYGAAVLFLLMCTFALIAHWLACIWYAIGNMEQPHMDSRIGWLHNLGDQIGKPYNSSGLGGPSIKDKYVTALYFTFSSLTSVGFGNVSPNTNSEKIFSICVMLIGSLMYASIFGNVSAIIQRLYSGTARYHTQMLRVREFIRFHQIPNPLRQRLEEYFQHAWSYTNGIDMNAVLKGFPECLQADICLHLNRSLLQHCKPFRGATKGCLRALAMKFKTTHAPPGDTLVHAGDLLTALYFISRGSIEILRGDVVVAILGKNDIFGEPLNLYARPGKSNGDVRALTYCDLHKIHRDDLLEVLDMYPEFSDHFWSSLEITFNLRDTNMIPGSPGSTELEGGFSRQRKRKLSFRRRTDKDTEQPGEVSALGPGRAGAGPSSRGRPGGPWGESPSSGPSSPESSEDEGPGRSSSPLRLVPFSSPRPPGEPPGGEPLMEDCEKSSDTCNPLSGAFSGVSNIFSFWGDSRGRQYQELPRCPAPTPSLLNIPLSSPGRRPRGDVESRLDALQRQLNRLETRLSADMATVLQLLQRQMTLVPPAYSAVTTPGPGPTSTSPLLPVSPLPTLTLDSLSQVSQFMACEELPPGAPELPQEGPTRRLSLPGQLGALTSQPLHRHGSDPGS

[7] = Toxicity in C57BL/6J mouse assessed as pathological changes in liver at 20 mg/kg, ip administered twice at 0 hrs and 8 hrs and measured after 16 hrs by Hematoxylin-Eosin staining based analysis; assay type: organism-based; conditions: in vivo
Mus musculus [8] = assay: Reno-protective activity against CLP-induced acute kidney injury C57BL/6J mouse model assessed as decrease in cleaved IL-1 beta protein expression in kidney at 20 mg/kg, ip administered twice at 30 mins prior to CLP operation and 8 hrs post-CLP operation and measured at 16 hrs post-CLP operation by western blot analysis; assay type: functional, organism-based; conditions: time 16.5 hrs
Mus musculus [9] = assay: (§1) Reno-protective activity against CLP-induced acute kidney injury C57BL/6J mouse model assessed as decrease in Casp1 gene expression in kidney at 20 mg/kg, ip administered twice at 30 mins prior to CLP operation and 8 hrs post-CLP operation and measured at 16 hrs post-CLP operation by RNA sequencing analysis; assay type: functional, organism-based; conditions: time 16.5 hrs
Mus musculus [10] = assay: as §1, with “Nlrp3” for “Casp1”; assay type: functional, organism-based; conditions: time 16.5 hrs
[11] = Tmax in BALB/c mouse at 10 mg/kg, iv measured for 24 hrs by LC-MS/MS analysis; assay type: ADME, organism-based; conditions: in vivo
[12] = Half life in human liver microsomes; assay type: ADME, Microsome
HEK293 = assay: Cytotoxicity against human HEK293 cells transfected with human P2X7 receptor assessed as effect on cell viability at 1 to 4 uM incubated for 2 hrs by CCK8 assay; assay type: toxicity, cell-based; conditions: hek293, 2 h, dose 1-4 µM
Mus musculus [13] = assay: Reno-protective activity against LPS-induced acute kidney injury C57BL/6J mouse model assessed as decrease in tubular injury by measuring epithelial flattening and tubular dilation at 5 to 20 mg/kg, ip administered twice at 30 mins prior to LPS challenge and 8 hrs post-LPS challenge and measured at 16 hrs post-LPS challenge by Hematoxylin-Eosin staining based analysis; assay type: functional, organism-based; conditions: dose 5-20 mg/kg, time 16.5 hrs
[14] = Toxicity in C57BL/6J mouse assessed as mortality at 600 mg/kg, ip measured for 14 days; assay type: organism-based; conditions: in vivo, 336 h, time 14 day
[15] = molecular target: T1, P2X purinoceptor 7 (Mus musculus) (UniProt Q9Z1M0); assay: Antagonist activity at mouse P2X7 receptor expressed in HEK293 cells assessed as inhibition of ATP-induced receptor pore formation at 200 nM by propidium iodide dye uptake based fluorescence analysis; assay type: cell-based; conditions: filed as antagonist
T1 sequence (whole entry): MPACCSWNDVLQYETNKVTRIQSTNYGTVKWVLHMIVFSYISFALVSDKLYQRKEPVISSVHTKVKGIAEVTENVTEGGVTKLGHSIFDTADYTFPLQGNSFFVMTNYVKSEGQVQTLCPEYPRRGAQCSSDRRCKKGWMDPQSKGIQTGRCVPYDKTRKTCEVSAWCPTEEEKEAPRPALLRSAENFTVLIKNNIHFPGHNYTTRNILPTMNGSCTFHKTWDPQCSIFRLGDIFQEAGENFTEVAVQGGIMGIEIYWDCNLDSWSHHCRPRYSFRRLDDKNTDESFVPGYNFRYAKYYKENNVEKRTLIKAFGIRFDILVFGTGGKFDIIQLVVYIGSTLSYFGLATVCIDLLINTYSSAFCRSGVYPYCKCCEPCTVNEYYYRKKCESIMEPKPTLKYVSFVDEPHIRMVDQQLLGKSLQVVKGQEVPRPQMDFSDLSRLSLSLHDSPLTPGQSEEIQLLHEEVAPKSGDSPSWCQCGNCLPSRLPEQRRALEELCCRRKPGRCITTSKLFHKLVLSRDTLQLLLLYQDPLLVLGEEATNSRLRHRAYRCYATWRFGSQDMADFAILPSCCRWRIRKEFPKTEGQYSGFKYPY

[16] = Oral bioavailability in BALB/c mouse at 10 mg/kg measured for 24 hrs by LC-MS/MS analysis; assay type: ADME, organism-based; conditions: in vivo
[17] = Toxicity in C57BL/6J mouse assessed as pathological changes in kidney at 20 mg/kg, ip administered twice at 0 hrs and 8 hrs and measured after 16 hrs by Hematoxylin-Eosin staining based analysis; assay type: organism-based; conditions: in vivo
[18] = Half life in BALB/c mouse at 10 mg/kg, iv measured for 24 hrs by LC-MS/MS analysis; assay type: ADME, organism-based; conditions: in vivo
THP-1 = assay: Inhibition of ATP-induced apoptosis in human THP-1 cells at […] pretreated with compound for 3 hrs in presence of LPS followed by incubation with ATP for 1 hr by PI/Hoechst staining based fluorescence microscopic analysis; assay type: functional, cell-based; conditions: dose 2.5 µM, time 4.0 hrs
[19] = Ratio of MTD in ip dosed C57BL/6J mouse to MED for reno-protective activity against ip dosed LPS-induced acute kidney injury C57BL/6J mouse model; assay type: ADME, organism-based; conditions: in vivo
Cytochrome P450 1A2 = molecular target: T2, Cytochrome P450 1A2 (Homo sapiens, UniProt P05177); assay: Inhibition of CYP1A2 in human liver microsomes using phenacetin as substrate upto 100 uM incubated for 10 mins in presence of NADPH by LC-MS/MS analysis; assay type: ADME, Microsome
T2 sequence (P05177 whole entry): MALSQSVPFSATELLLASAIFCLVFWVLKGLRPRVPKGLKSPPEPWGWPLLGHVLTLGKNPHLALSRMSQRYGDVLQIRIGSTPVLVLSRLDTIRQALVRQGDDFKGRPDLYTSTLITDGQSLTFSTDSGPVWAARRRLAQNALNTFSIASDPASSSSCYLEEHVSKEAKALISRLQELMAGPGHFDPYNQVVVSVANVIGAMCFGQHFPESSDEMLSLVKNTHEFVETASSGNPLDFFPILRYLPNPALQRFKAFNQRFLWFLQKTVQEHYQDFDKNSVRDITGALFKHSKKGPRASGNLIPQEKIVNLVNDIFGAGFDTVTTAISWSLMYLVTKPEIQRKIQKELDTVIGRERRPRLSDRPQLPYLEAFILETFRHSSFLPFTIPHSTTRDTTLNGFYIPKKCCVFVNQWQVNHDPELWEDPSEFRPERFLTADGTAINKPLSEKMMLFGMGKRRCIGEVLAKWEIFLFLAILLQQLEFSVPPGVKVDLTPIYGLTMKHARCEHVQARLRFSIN

[20] = Cmax in BALB/c mouse at 10 mg/kg, ip measured for 24 hrs by LC-MS/MS analysis; assay type: ADME, organism-based; parameters: dose 10 mg/kg, time 24 hrs, route ip; conditions: in vivo

CS(=O)(=O)c1ccc(-c2nc(C(=O)NCc3cn(-c4cc(Br)ccn4)nn3)cs2)cc1
Activity (Mus musculus [1]): Active
inhibition (INH) (Cytochrome P450 2C19): Not Active
half-life [2]: 1.92 h
CLint scaled [3]: 0.994 L/h/kg
Activity [4]: Non-Toxic
clearance [5]: 0.59 L/h/kg
IC50 [6]: > 30 µM
Activity [7]: Non-Toxic
Activity (Mus musculus [8]): Active
Activity (Mus musculus [9]): Active
Activity (Mus musculus [10]): Active
Tmax [11]: 0.19 h
half-life [12]: 1.75 h
Activity (HEK293): Non-Toxic
Activity (Mus musculus [13]): Dose-Dependent Effect
Activity [14]: Toxic
inhibition [15]: 101%
bioavailability [16]: 39.2%
Activity [17]: Non-Toxic
half-life [18]: 5.31 h
inhibition (THP-1): Active
selectivity ratio [19]: 80
inhibition (INH) (Cytochrome P450 1A2): Not Active
Cmax [20]: 1.07 µg/mL

Reference: ChEMBL document CHEMBL5360655, “Design, Synthesis, and Biological Evaluation of Novel P2X7 Receptor Antagonists for the Treatment of Septic Acute Kidney Injury” (J Med Chem, 2023)
